Data on 1 compound can be found in article PMC8397418, “Novel Bis-Thiazole Derivatives: Synthesis and Potential Cytotoxic Activity Through Apoptosis With Molecular Docking Approaches” (Frontiers in Chemistry, 2021).

One assay relates to C-myc in KF-28 cells. In words: Western blot of C-myc expression. It counts as cell-based, human. Particulars: two days, vs DMSO. An excerpt:
Pim-1 has been classified as a weak oncogene. However, a very strong synergism with regard to tumorigenicity occurs between Pim-1 and C-myc. This synergism is observed with bitransgenic mice overexpressing C-myc and Pim-1 in lymphoid tissue ([Möröy et al., 1991]). To further validate the simulation and docking data which introduced Pim-1 kinase as a potential target molecule for some of the tested compounds, we decided to check the effect of treatment with the selected compounds on the C-myc protein expression as a downstream target molecule known to be phosphorylated and stabilized by Pim-1 as a kinase ([Zhang et al., 2008]). […] Taking into consideration the fact that Pim-1 phosphorylates C-myc and controls its stability ([Zhang et al., 2008]) may conclude that the reduction of C-myc expression under the indicated compounds is due to the inhibition of Pim-1 activity (Figure 3). Therefore, the speculated inhibition of Pim-1 is supported by the above-mentioned qPCR data (Figure 3) and further supported by C-myc downregulation. Our results agree with the reported one which states that some thiazole derivatives are potent inhibitors against protein kinases including Pim-1 kinase ([Mohareb et al., 2019]).
Cell lysates were prepared by lysing cells in RIPA buffer (10 mM Tris (pH 7.4), 150 mM NaCl, 1% Triton X-100, 1% Na deoxycholate), supplemented with protease inhibitor cocktail (Sigma). Protein concentration of whole cell lysates was determined by the […] using the BSA kit (Pierce), and then equal protein amounts were heated to 95 °C for 5 min with sodium dodecyl sulfate (SDS) sample buffer (25 ml glycerol, 31.2 ml Tris buffer, 7.5 ml SDS, a dash of bromophenol blue/100 ml) and run on 15% SDS polyacrylamide gel electrophoresis (SDS-PAGE). Protein samples were then blotted onto PVDF membranes (Immobilon P, Watford, United Kingdom). The membranes were incubated in blocking solution (5% non-fat milk in PBS) for 1 h and then in primary antibody (anti-human C-myc pAb (Abcam; at dilution of 2:1,000) or GAPDH mAb (Santa Cruz; at dilution of 20:1,000)) overnight. After 3 × 10 min washes in TBS (0.1% Tween-20 in PBS), the membrane was incubated for 1 h at room temperature with horseradish-peroxidase–linked (HRP) secondary anti-rabbit or anti-mouse Ab (1:1,000 dilution in PBS). Signals on the membrane were developed using ECL reagent (Amersham, CA, United States) and then were imaged with the Chemidoc system (Bio-Rad, United States).
(In general: A western blot detects proteins with antibodies after separation by electrophoresis.)

Assay [1] relates to Hela cervical cancer cells. Kind of assay: MTT cytotoxicity assay, Hela. Particulars: Homo sapiens, MTT, 72 h, n = 3, read-out: IC50 Hela (Cervical). It counts as cell-based. The procedure:
(§1) The synthesized derivatives were screened for their cytotoxic activities against five cancer cell lines (two breast cancer cell lines: MCF-7 and MDA-MB-231, two ovarian cancer cell lines: A2780 and KF-28, and one cervical cancer cell line: Hela). This study was performed using serial concentrations of 25, 50, 100, 150, and 200 µM of each compound using the MTT assay. Percentages of cell viability of the tested compounds with serial concentration against the tested panel of cell lines are depicted in Figure 1, in which there is a decrease in the cell viability with increasing concentrations in a dose–response pattern. […] Therefore, compounds 5a, 5b, and 5f were thought worthwhile to further investigate their effects as either cytotoxic or antiproliferative effects and whether any of them is an inducer of apoptotic cell death in the representative cancer cell lines KF-28 and A2780.
(§2) The human ovarian serous carcinoma cell line KF-28 was kindly provided by Prof. Yoshihiro Kikuchi (Department of Obstetrics and Gynecology, National Defense Medical College, Saitama, Japan), and A2780 cell line was purchased from the ECACC (ECACC 93112519). The cells were maintained in RPMI-1640 (Sigma-Aldrich, United States). The cervical cancer cell line, Hela cells, breast cancer cell line, MCF-7, and MDA-MB-231 were purchased from the ATCC and cultured in DMEM. Both types of media were supplemented with 2 mM L-glutamine (Lonza, Belgium), 10% FBS (Sigma, St. Louis, MO, United States), and 1% penicillin/streptomycin (Lonza, Belgium). All cells were incubated at 37°C in 5% CO2 atmosphere (NuAire). All cancer cell lines were cultured according to the routine tissue culture work as discussed by the Freshney group ([Freshney, 2010]). The cells were plated at a density of 5,000 cells in triplicates in a 96-well plate. On the next day, the cells were treated with the indicated compound(s) at the indicated concentrations in a final volume of 100 μL media. Cell viability was assessed after 72 h using MTT solution (Promega) ([Mosmann, 1983]). 20 μL of the reagent was added to each well, the plate was incubated for 3 h, […] was subsequently measured (570 nm) using a plate reader, and then the IC50 values were calculated using Excel ([Tantawy et al., 2020]).
For orientation: Tetrazolium dyes change colour on reduction, which living cells bring about.

The subject of assay [2] is MDA-MB-231 breast cancer cells. In words: MTT cytotoxicity assay, MDA-MB-231. It counts as cell-based. The following applies: Homo sapiens, MDA-MB-231; MTT, 72 h, n = 3; read-out: IC50 MDA-MB-231 (Breast). As to the method: as §1, §2
The test system of assay [3] is MEF normal mouse embryonic fibroblast. Kind of assay: MTT cytotoxicity assay, MEF. It counts as cell-based. Particulars: n = 3.

Entries after “also recorded” stand apart in the source; their conditions may differ. Where only a bound is given, the exact number is not on record here.

Regarding `Cc1[nH]c(=NN=C2CCC(=NN=c3[nH]c(C)c(N=Nc4ccc(Cl)cc4)s3)CC2)sc1N=Nc1ccc(Cl)cc1` [5c, 1,4-Bis((5-(4-chlorophenylazo)-4-methylthiazol-2-ylidene)hydrazono)cyclohexane], the “C-myc protein expression (Western blot)” value in the assay on C-myc in KF-28 cells is “observable downregulation; also recorded: Appreciated downregulation”. The values for the IC50 in assay [1], in assay [2] and in assay [3] were less than 25 µM, 116 µM and more than 200 µM, respectively.
